# Results reported in article PMC5429698, “Biochemical analysis of leishmanial and human GDP-Mannose Pyrophosphorylases and selection of inhibitors as new leads” (Scientific Reports, 2017).
# Where two headings read alike, the source gives them in different places.
# Tests used:
# LmGDP-MP = LmGDP-MP (Leishmania mexicana, UniProt E9AW11); assay: biochemical; format: biochemical
# Experimental: (§1) GDP-MP catalyzes the following reaction: Man‐1‐P+GTP→GDP−Mannose+Pyrophosphate The reaction media were buffered at pH optima and contained optimal concentrations of Man-1-P, GTP, GDP-MP and Mg^2+ determined for each purified GDP-MP (Fig. 2d), supplemented with DTT (1 mM). Inorganic pyrophosphatase, which hydrolyses the inorganic pyrophosphates generated by the GDP-MPs in inorganic phosphates, was added at 0.1 U/ml (Sigma-Aldrich). Inorganic pyrophosphatase was added in excess to the reaction medium in order to minimize the probability that the putative inhibitors of GDP-MPs interfere with this enzyme. The reaction was initiated by the addition of GDP-MP, and was stopped after adding 100 µl of revelation buffer containing malachite green (0.03% w/v), ammonium molybdate (0.2% w/v) and Triton X-100 (0.05% v/v) in HCl (0.7 M) for 5 min at the optimal temperature. The quantity of inorganic phosphate generated, representing GDP-MP activity, was determined by measuring OD650nm (Lab systems Multiskan MS). The molar extinction coefficient ε of the end product detected was determined by measuring OD650nm with a range of inorganic phosphate concentrations diluted in the revelation buffer and was calculated at 27207 M^−1 cm^−1 (Supplementary Fig. S2). The kinetic constants K m, V m and k cat were determined by non linear regression using GraphPad Prism 6.0.
# (§2) Enzyme activity was measured as described above in the presence of 100 µM of compounds and the percentage of inhibition was calculated in reference to untreated enzyme. As a control, compounds were evaluated in parallel in the same conditions on inorganic pyrophosphatase alone in order to discard false-positives. […] Furthermore, no effect was observed on the activity of the three purified GDP-MPs with 1% DMSO, corresponding to the maximal solvent concentration used at 100 µM of compound. Compounds presenting a minimum of 50% inhibition on a leishmanial GDP-MP were subsequently selected to determine their type of inhibition and their K i values. Inhibition data were fitted to competitive, non-competitive or uncompetitive models of enzyme inhibition by non linear least squares regression analysis using GraphPad Prism 6.0.
# [1] = test system: L. donovani axenic amastigotes; assay: Antileishmanial evaluation on axenic amastigotes (resazurin); format: cell-based; conditions: Leishmania donovani, 72 h, 72 h treatment, 37 °C; read-out: IC50 (µM) ± SD L. donovani axenic amastigotes
# Experimental: (§3) The evaluations of activity on axenic and intramacrophage amastigotes were adapted from the protocols previously described. Briefly, for the evaluation on axenic amastigotes, two fold serial dilutions of the compounds from a maximal concentration of 100 µM were performed in 100 µl of complete medium (see above) in 96-well microplates. Axenic amastigotes were then added to each well at a density of 10^6/ml in a 200 µl final volume. After 72 h of treatment at 37 °C for L. donovani or at 32 °C for L. mexicana with 5% CO2, 20 µl of resazurin (450 µM) was added to each well and further incubated in the dark for 24 h at 37 °C for L. donovani or at 32 °C for L. mexicana with 5% CO2. In living cells, resazurin is reduced in resorufin and this conversion is monitored by measuring OD570nm (resorufin) and OD600nm (resazurin; Lab systems Multiskan MS). The activity of the compounds was expressed as IC50. Miltefosine was used as the reference drug.
# [2] = test system: L. mexicana axenic amastigotes; assay: as above; format: cell-based; conditions: Leishmania mexicana, 72 h, 72 h treatment, 32 °C; read-out: IC50 (µM) ± SD L. mexicana axenic amastigotes
# Experimental: as §3
# [3] = test system: L. donovani intramacrophage amastigotes in infected RAW.264.7 macrophages; assay: Antileishmanial evaluation on intramacrophage amastigotes, RAW264.7 host; format: cell-based; conditions: for IC50: Leishmania donovani, RAW264.7, 48 h, 48 h treatment, read-out: IC50 (µM) ± SD L. donovani infected RAW.264.7 macrophages; for Selectivity index (CC50/IC50) L. donovani RAW264.7 macrophages: CC50 RAW264.7 / IC50 infected RAW264.7
# Experimental: (§4) Concerning the evaluation on intramacrophage amastigotes, RAW 264.7 macrophages (from ATCC) and bone marrow derived macrophages (BMDM) were plated in 96-well microplates at a density of 2 × 10^4 cells per well and incubated for 24 h at 37 °C with 5% CO2 for RAW264.7 cells or at 37 °C with 7% CO2 for BMDM. Axenic amastigotes were differenciated as described above, centrifuged at 2,000 g for 10 min, resuspended in DMEM complete medium, and added to each well to reach a 16:1 parasite to macrophage ratio. After 24 h of infection at 37 °C with 5% CO2 for RAW264.7 cells or at 37 °C with 7% CO2 for BMDM, extracellular parasites were removed, and DMEM complete medium (100 µl) containing two fold serial dilutions of the compounds from a maximal concentration of 100 µM was added to each well. After 48 h of treatment, the medium was removed and replaced by DirectPCR Lysis Reagent (100 µl; Euromedex) before 3 freeze-thaw cycles at room temperature, addition of 50 µg/ml proteinase K, and a final incubation at 55 °C overnight to allow cell lysis. 10 µl of each cell extract was then added to 40 µl of DirectPCR Lysis reagent containing Sybr Green I (0.05%; Invitrogen). DNA fluorescence was monitored using Mastercycler® realplex (Eppendorf). The activity of the compounds was expressed as IC50. Miltefosine was used as the reference drug.
# [4] = test system: L. donovani intramacrophage amastigotes in infected BMDM; assay: Antileishmanial evaluation on intramacrophage amastigotes, BMDM host; format: cell-based; conditions: for Selectivity index (CC50/IC50) L. donovani BMDM: CC50 BMDM / IC50 infected BMDM; for IC50: Leishmania donovani, BMDM, 48 h treatment, read-out: IC50 (µM) ± SD L. donovani infected BMDM
# Experimental: as §4
# [5] = test system: L. mexicana intramacrophage amastigotes in infected BMDM; assay: microbe, parasite or virus in culture; format: cell-based; conditions: for Selectivity index (CC50/IC50) L. mexicana BMDM: CC50 BMDM / IC50 infected BMDM; for IC50: Leishmania mexicana, BMDM, 48 h, 48 h treatment, read-out: IC50 (µM) ± SD L. mexicana infected BMDM
# Experimental: as §4
# [6] = test system: L. mexicana intramacrophage amastigotes in infected RAW.264.7 macrophages; assay: microbe, parasite or virus in culture; format: cell-based; conditions: for Selectivity index (CC50/IC50) L. mexicana RAW264.7 macrophages: CC50 RAW264.7 / IC50 infected RAW264.7; for IC50: 48 h treatment, read-out: IC50 (µM) ± SD L. mexicana infected RAW.264.7 macrophages
# Experimental: as §4
# Cytotoxicity (resazurin) [7] = format: cell-based; conditions: mouse, RAW264.7 macrophages; 48 h incubation; read-out: Cytotoxicity CC50 (µM) ± SD RAW264.7 macrophages
# Experimental: (§5) Cells were plated in 96-well microplates at a density of 2 × 10^4 cells per well. After an incubation of 24 h at 37 °C with 5% CO2 for RAW264.7 cells or at 37 °C with 7% CO2 for BMDM, the medium was removed in each well, and 100 µl of DMEM complete medium containing two fold serial dilutions of the compounds was added to each well. […] Cell viability was then monitored as described above.
# Cytotoxicity (resazurin) [8] = format: cell-based, Balb/c mice; conditions: Balb/c, mouse, bone marrow derived macrophages (BMDM); 48 h incubation; read-out: Cytotoxicity CC50 (µM) ± SD BMDM
# Experimental: as §5
# [9] = test system: inorganic pyrophosphatase; assay: Control for false positives on inorganic pyrophosphatase alone; format: biochemical; conditions: compound at 100 µM, same conditions as the GDP-MP assay
# Experimental: as §2
# [10] = test system: leishmanial GDP-MP (LdGDP-MP and/or LmGDP-MP); assay: Screen of the 100 compound library at 100 µM on purified leishmanial GDP-MPs; format: biochemical, Leishmania; conditions: compound at 100 µM
# Experimental: as §1, §2
# T. brucei GDP-MP = test system: T. brucei GDP-MP; set-up: method as in PMID 19919534; conditions: cited from earlier work
# [11] = Leishmania mexicana, RAW264.7, 48 h
# Sequence of LmGDP-MP (E9AW11 entry or part of it): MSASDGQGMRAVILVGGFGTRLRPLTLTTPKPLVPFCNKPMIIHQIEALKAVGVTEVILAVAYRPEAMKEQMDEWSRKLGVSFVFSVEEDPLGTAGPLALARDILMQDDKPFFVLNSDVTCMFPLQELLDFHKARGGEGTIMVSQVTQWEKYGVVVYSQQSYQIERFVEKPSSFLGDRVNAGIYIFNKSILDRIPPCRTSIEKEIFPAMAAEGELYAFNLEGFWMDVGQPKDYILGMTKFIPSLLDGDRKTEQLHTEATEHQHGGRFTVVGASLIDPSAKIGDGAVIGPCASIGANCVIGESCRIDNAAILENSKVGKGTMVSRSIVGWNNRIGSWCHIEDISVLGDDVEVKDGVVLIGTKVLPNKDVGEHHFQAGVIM
SMILES,Ki (LmGDP-MP) [µM],IC50 [1] [µM],IC50 [2] [µM],IC50 [3] [µM],Selectivity index (CC50/IC50) L. donovani BMDM [4],IC50 [4] [µM],Selectivity index (CC50/IC50) L. mexicana BMDM [5],IC50 [5] [µM],Selectivity index (CC50/IC50) L. mexicana RAW264.7 macrophages [6],"IC50 [6, 11] [µM]",CC50 at 48 h (Cytotoxicity (resazurin) [7]) [µM],CC50 at 48 h (Cytotoxicity (resazurin) [8]) [µM],inhibition of inorganic pyrophosphatase [9] [%],enzyme inhibition on a leishmanial GDP-MP [10],Selectivity index (CC50/IC50) L. donovani RAW264.7 macrophages [3],Km (T. brucei GDP-MP) [µM],IC50 [6] [µM]
O=C(NCc1ccccc1)c1ccc2nc(-c3ccccc3)c(-c3ccccc3)nc2c1 [compound 46],25.6 ± 3.46,> 100,7.69 ± 0.56,> 100,1.0,12.5 ± 0.93,0.8,15.7 ± 3.48,>8.5,11.7 ± 1.13,> 100,13.1 ± 1.67,< 5,above 50%,–,–,–
Nc1nc2c(ncn2C2OC(Cn3cc(-c4ccc(-c5ccccc5)cc4)nn3)C(O)C2O)c(=O)[nH]1 (stereo not shown) [compound 83],25.4 ± 4.23,> 100,30.6 ± 3.29,51.9 ± 7.49,0.9,27.1 ± 2.04,0.9,25.9 ± 5.37,>2.2,45.4 ± 6.21,> 100,23.8 ± 1.98,< 5,above 50%,>1.9,–,–
Nc1ncnc2c1ncn2[C@@H]1O[C@H](COP(=O)(O)OP(=O)(O)OP(=O)(O)O)[C@@H](O)[C@H]1O [ATP],–,–,–,–,–,–,–,–,–,–,–,–,–,–,–,290,–
Clc1ccc2nc(COCCn3cc(-c4ccc(-c5ccccc5)cc4)nn3)ccc2c1 [compound 92],16 ± 3.51,> 100,43.1 ± 3.42,41.6 ± 14,0.9,82.5 ± 7.61,1.0,79.3 ± 9.76,>12.1,< 10,> 100,77.5 ± 5.34,< 5,above 50%,>2.4,–,8.25 ± 1.07
